Where two headings read alike, the source gives them in different places. Values belong to the molecule of their own block, whether it stands above or below them.
Columns and labels:
CYP-treated rats = test: Anaesthetized cystometry, micturition interval in CYP-treated rats (overactive bladder); type: in vivo, rat; conditions: i.v.
Experimental: All animal experiments were performed due to the “German Law for the Protection of Laboratory animals” and were conducted due to the approved guidelines of the permission “Tierversuchsvorhaben No 401/A01 M010/M011 vom Sep. 7, 2004”. Experiments were performed with female Sprague Dawley Rats with a body weight between 200-250 g. Anaesthetized cystometry: For cystometry female SD rats were anaesthetized with urethane (1.2 g/kg, ip). After laparotomy, the bladder was exposed and both ureters were ligated and cut. A polyethylene cannula (PE50) was implanted into the bladder dome, and the abdomen was closed. The bladder catheter was connected to the t-shaped tube to connect a infusion pump (Perfusor® compact; Braun Melsungen) for continuous infusion of saline solution and to connect a pressure transducer (Combitrans; Braun Melsungen) for measurement of intrabladder pressure. The intrabladder pressure signals were registered with the Powerlab System (MLT0698, ADInstrument). […] The effect of treatments was calculated on the micturition interval (corresponding to bladder capacity). […]
Statistical analysis of results: Data are expressed as means i standard error of the means (SEM), and n indicating the number of experiments. The significance of differences between means was determined by paired and unpaired Student's t-test. […]

BOO rats = test: Conscious cystometry in rat bladder outlet obstruction (BOO) model, non voiding contractions; type: in vivo; conditions: i.v.
Experimental: All animal experiments were performed due to the “German Law for the Protection of Laboratory animals” and were conducted due to the approved guidelines of the permission “Tierversuchsvorhaben No 401/A01 M010/M011 vom Sep. 7, 2004”. Experiments were performed with female Sprague Dawley Rats with a body weight between 200-250 g.
Bladder Outlet Obstruction: For the bladder outlet obstruction, rats were anesthetized with a mixture of 1.5-2% isoflurane in a carrier of 66% N2O 33% O2. The abdomen was shaved, opened by a lower midline incision, bladder and urethra were identified and the urethravesical junction was exposed. A 1.0 mm metal rod was placed along the proximal urethra and a 6-0 nylon ligature was tied tightly around the urethra and the rod. The rod was consecutively removed and the abdomen was closed by a silk ligature and cleaned up by 70% ethanol. […]
Conscious cystometry: For cystometry the animals were shortly anaesthetized by isoflurane as described above, placed in a Ballman's cage and fixed. […] The efficacy of treatment was quantified via calculation of the non voiding contractions per micturition interval before and after treatment. […]
Statistical analysis of results: Data are expressed as means±standard error of the means (SEM), and n indicating the number of experiments. The significance of differences between means was determined by paired and unpaired Student's t-test. […]

rabbit bladder strips = test: Organ bath, isolated rabbit bladder strips pre-contracted with K+ (50 mmol/l); type: cell-based; conditions: for % contraction of isolated rabbit bladder strips: percentage of the pre-contraction, mean ± SEM, n = 9; for IC50: Oryctolagus cuniculus, rabbit bladder strips
Experimental: White New Zealand rabbits were anesthetized using thiopental. The urinary bladder was removed and placed in ice-cold Krebs-Henseleit buffer of following composition (in mmol/l): NaCl 112, KCl 5.9, CaCl2 2.0 MgCl2 1.2, NaH2PO4 1.2, NaHCO3 25, and glucose 11.5. Equally sized longitudinal strips of approximately 2 mm×10 mm were cut from the bladder body.
Recording of mechanical activity: The preparations were transferred to 20 ml organ baths containing Krebs-Henseleit solution equilibrated with 95% O2, 5% CO2 at 37° C. The strips were mounted between two hooks by means of two clips. For recording of isometric tension one of the hooks was connected to a force transducer which was in turn linked to an amplifier and chart recorder. The other hook was attached to a movable unit, permitting precise adjustment of preload tension. All tissues were then given a 60 min equilibration period during which they were washed and the resting tension was adjusted to 1 g every 20 min.
After the equilibration period, each experiment was started by exposing the preparation to K^+ (50 mmol/l) Krebs-Henseleit solution. The procedure was repeated 3 times and the tissues were washed at least tree times between each contraction.
The bladder strips were than pre-contracted using K^+ (50 mmol/l) Krebs-Henseleit solution. When the contraction was stabilized, an accumulative dose response curve of the compound tested was constructed. The stabilized contraction induced by K^+ (50 mmol/l) Krebs-Henseleit solution was defined as 100% tension. The relaxation was expressed as percentage tension.
Effects of PDE5 and PDE4 inhibitors on isolated rabbit bladder strips: The effects of the PDE5 inhibitor vardenafil and the PDE4 inhibitor Roflumilast on the relaxation the bladder smooth muscle was tested in the organ bath using rabbit bladder strips. Both compounds were tested in the concentration from 10^−9 mol/l to 10^−5 mol/l (FIG. 4, Tab. 2). […] (Table 2)

rat urethral rings = test: Organ bath, isolated rat urethral rings pre-contracted with phenylephrine; type: cell-based; conditions: for Urethra (% contraction): percentage of the pre-contraction, mean ± SEM, n = 9
Description: (§1) Tissue preparation: Male Wistar rats (200-300 g) were euthanized using carbon dioxide. The tissues were removed and placed in ice-cold Krebs-Henseleit buffer of following composition (in mmol/l): NaCl 112, KCl 5.9, CaCl2 2.0 MgCl2 1.2, NaH2PO4 1.2, NaHCO3 25, glucose 11.5. Four equally sized longitudinal strips of approximately 2 mm×10 mm were cut from the bladder body. Prostate strips were obtained by cutting transversally through the lobes of the prostate gland parallel to the urethra. One ring per animal was dissected from the proximal part of the urethra. Recording of mechanical activity: The preparations were transferred to 20 ml organ baths containing Krebs-Henseleit solution equilibrated with 95% O2, 5% CO2 at 37° C. The strips were mounted between two hooks by means of two clips. For recording of isometric tension one of the hooks was connected to a force transducer which was in turn linked to an amplifier and chart recorder. The other hook was attached to a movable unit, permitting precise adjustment of preload tension. All tissues were then given a 60 min equilibration period during which they were washed and the resting tension was adjusted to 1 g every 20 min. After the equilibration period, each experiment was started by exposing the preparation to K^+ (50 mmol/l) Krebs-Henseleit solution. The procedure was repeated 3 times and the tissues were washed at least tree times between each contraction. Prostatic strips and urethral rings were pre-contracted using 10^−6 mol/l phenylephrine. The effects of the compounds on the prostate tissue were tested in a non-cumulative manner with washing steps between each concentration. Organ bath assay: effects of Vardenafil on isolated rat urogenital organs: The effects of the PDE5 inhibitor Vardenafil on the relaxation of smooth muscles were tested in the organ bath system. The compound was applied in the concentration range from 10^−8 mol/l to 10^−5 mol/l (FIG. 3, Table 1).

rat prostate strips = test: Organ bath, isolated rat prostate strips pre-contracted with phenylephrine; type: cell-based; conditions: for Prostate (% contraction): percentage of the pre-contraction, mean ± SEM, n = 9
Description: as §1

rat bladder strips = test: Organ bath, isolated rat bladder strips pre-contracted with K+ (50 mmol/l); type: cell-based; conditions: for Bladder (% contraction): percentage of the pre-contraction, mean ± SEM, n = 9
Description: Tissue preparation: Male Wistar rats (200-300 g) were euthanized using carbon dioxide. The tissues were removed and placed in ice-cold Krebs-Henseleit buffer of following composition (in mmol/l): NaCl 112, KCl 5.9, CaCl2 2.0 MgCl2 1.2, NaH2PO4 1.2, NaHCO3 25, glucose 11.5. Four equally sized longitudinal strips of approximately 2 mm×10 mm were cut from the bladder body. Prostate strips were obtained by cutting transversally through the lobes of the prostate gland parallel to the urethra. One ring per animal was dissected from the proximal part of the urethra. Recording of mechanical activity: The preparations were transferred to 20 ml organ baths containing Krebs-Henseleit solution equilibrated with 95% O2, 5% CO2 at 37° C. The strips were mounted between two hooks by means of two clips. For recording of isometric tension one of the hooks was connected to a force transducer which was in turn linked to an amplifier and chart recorder. The other hook was attached to a movable unit, permitting precise adjustment of preload tension. All tissues were then given a 60 min equilibration period during which they were washed and the resting tension was adjusted to 1 g every 20 min. After the equilibration period, each experiment was started by exposing the preparation to K^+ (50 mmol/l) Krebs-Henseleit solution. The procedure was repeated 3 times and the tissues were washed at least tree times between each contraction. The bladder strips were than pre-contracted using K^+ (50 mmol/l) Krebs-Henseleit solution. When the contraction was stabilized, an accumulative dose response curve of the compound tested was constructed. The stabilized contraction induced by K^+ (50 mmol/l) Krebs-Henseleit solution was defined as 100% tension. The relaxation was expressed as percentage tension. Organ bath assay: effects of Vardenafil on isolated rat urogenital organs: The effects of the PDE5 inhibitor Vardenafil on the relaxation of smooth muscles were tested in the organ bath system. The compound was applied in the concentration range from 10^−8 mol/l to 10^−5 mol/l (FIG. 3, Table 1).

human prostate tissue = conditions: in vitro; Ückert 2001; cited from earlier work
[1] = tested on: bladder of female Guinea Pigs; conditions: Gillespie 2004; cited from earlier work
[2] = read-out: IC50, relaxation of bladder strips

- IC50 (rabbit bladder strips; [2]): 1700 nM
- EC50 (rat urethral rings; rat urethral rings, read-out: EC50, relaxation of urethral rings): 960 nM
- EC50 (rat prostate strips; rat prostate strips, read-out: EC50, relaxation of prostate strips): 1100 nM
- EC50 (rat bladder strips; rat bladder strips, read-out: EC50, relaxation of bladder strips): 5000 nM
Structure (SMILES): CCCc1nc(C)c2c(=O)[nH]c(-c3cc(S(=O)(=O)N4CCN(CC)CC4)ccc3OCC)nn12 [Vardenafil, 2-(2-Ethoxy-5-(4-ethylpiperazin-1-yl-1-sulfonyl)phenyl)-5-methyl-7-propyl-3H-imidazo (5,1-f) (1,2,4)triazin-4-one]
- MED, significant increase of micturition interval (CYP-treated rats): 3 mg/kg
- MED, significant reduction of non voiding contractions (NVC) (BOO rats): 3 mg/kg
- % contraction of isolated rabbit bladder strips (rabbit bladder strips; 0.001 μmol/l): 100.9 ± 1.0%
- % contraction of isolated rabbit bladder strips (rabbit bladder strips; 0.01 μmol/l): 99.9 ± 0.9%
- % contraction of isolated rabbit bladder strips (rabbit bladder strips; 0.1 μmol/l): 95.7 ± 1.7%
- % contraction of isolated rabbit bladder strips (rabbit bladder strips; 1 μmol/l): 76.3 ± 3.7%
- % contraction of isolated rabbit bladder strips (rabbit bladder strips; 10 μmol/l): 9.6 ± 12.6%
- Urethra (% contraction) (rat urethral rings; 0.001 μmol/l): 88.4 ± 2.4%
- Urethra (% contraction) (rat urethral rings; 0.01 μmol/l): 88.5 ± 2.1%
- Urethra (% contraction) (rat urethral rings; 0.1 μmol/l): 77.1 ± 3.9%
- Urethra (% contraction) (rat urethral rings; 1 μmol/l): 44.9 ± 1.5%
- Urethra (% contraction) (rat urethral rings; 10 μmol/l): 3.5 ± 1.7%
- Prostate (% contraction) (rat prostate strips; 0.1 μmol/l): 99.2 ± 3.0%
- Prostate (% contraction) (rat prostate strips; 1 μmol/l): 76.0 ± 2.3%
- Prostate (% contraction) (rat prostate strips; 10 μmol/l): 25.3 ± 3.2%
- Bladder (% contraction) (rat bladder strips; 0.001 μmol/l): 94.3 ± 0.9%
- Bladder (% contraction) (rat bladder strips; 0.01 μmol/l): 91.2 ± 1.3%
- Bladder (% contraction) (rat bladder strips; 0.1 μmol/l): 89.9 ± 1.8%
- Bladder (% contraction) (rat bladder strips; 1 μmol/l): 77.8 ± 2.1%
- Bladder (% contraction) (rat bladder strips; 10 μmol/l): 25.3 ± 3.2%

Structure (SMILES): CCCOc1ccccc1-c1nc2nn[nH]c2c(=O)[nH]1 [Zaprinast]
- relaxation of pre-contracted human prostate tissue (human prostate tissue): able to relax
- relaxation of bladder [1]: ineffective

Structure (SMILES): CC(C)Cn1c(=O)n(C)c(=O)c2[nH]cnc21 [IBMX]
- relaxation of bladder [1]: could relax

- IC50 (rabbit bladder strips; [2]): 260 nM
- IC50 (rabbit bladder strips; read-out: IC50, relaxing effects on rabbit bladder strips): 260 nM
Structure (SMILES): O=C(Nc1c(Cl)cncc1Cl)c1ccc(OC(F)F)c(OCC2CC2)c1 [Roflumilast]
- % contraction of isolated rabbit bladder strips (rabbit bladder strips; 0.001 μmol/l): 100.8 ± 0.6%
- % contraction of isolated rabbit bladder strips (rabbit bladder strips; 0.01 μmol/l): 90.1 ± 1.7%
- % contraction of isolated rabbit bladder strips (rabbit bladder strips; 0.1 μmol/l): 75.1 ± 2.1%
- % contraction of isolated rabbit bladder strips (rabbit bladder strips; 1 μmol/l): 55.8 ± 2.5%
- % contraction of isolated rabbit bladder strips (rabbit bladder strips; 10 μmol/l): 40.9 ± 3.3%

— US20090186896A1, “PDE Inhibitors and Combinations Thereof for the Treatment of Urological Disorders” (Bayer HealthCare AG, priority 2005, published 2009)
